Assay results: the supplement of paper PMC10307832

Tests used:
Test in all cases: relative viability (nuclei count vs DMSO), 5 days (fraction); higher = more cells survive
[1] = compound: COC1=CC=C(C=C1)COC2=C(C=C(C=C2)CC3=CN=C(N=C3N)N)OC [GW-2580] + CC(=O)Nc1cccc(-n2c(=O)n(C3CC3)c(=O)c3c(Nc4ccc(I)cc4F)n(C)c(=O)c(C)c32)c1 [Trametinib] (partner 0.02 µM)
Summary of the method: (§1)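 Relative viability was taken as the ratio of nuclei in treated wells to nuclei in vehicle wells. Lung cancer cell lines in 1536-well plates received compounds by pin tool one day after seeding, either one drug alone or a fixed anchor-drug dose plus five library-drug doses (not always all listed) in √10 steps. Nuclei were counted on 4× images after 5 days of treatment, and values are medians of duplicate plates.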

[2] = compound: COC1=CC=C(C=C1)COC2=C(C=C(C=C2)CC3=CN=C(N=C3N)N)OC [GW-2580] + C[C@@H](Oc1cc(-c2cnn(C3CCNCC3)c2)cnc1N)c1c(Cl)ccc(F)c1Cl [Crizotinib] (partner 1 µM)
Summary of the method: as §1

[3] = compound: COC1=CC=C(C=C1)COC2=C(C=C(C=C2)CC3=CN=C(N=C3N)N)OC [GW-2580] + Nc1ncn([C@H]2C[C@H](O)[C@@H](CO)O2)c(=O)n1 [Decitabine] (partner 2 µM)
Summary of the method: as §1

[4] = compound: Cc1cnc(Nc2ccc(OCCN3CCCC3)cc2)nc1Nc1cccc(S(=O)(=O)NC(C)(C)C)c1 [Fedratinib] + Cc1nc(Nc2ncc(C(=O)Nc3c(C)cccc3Cl)s2)cc(N2CCN(CCO)CC2)n1 [Dasatinib] (partner 0.075 µM)
Summary of the method: as §1

[5] = compound: Cc1cnc(Nc2ccc(OCCN3CCCC3)cc2)nc1Nc1cccc(S(=O)(=O)NC(C)(C)C)c1 [Fedratinib] + O=C(CCCCCCC(=O)Nc1ccccc1)NO [Vorinostat] (partner 1 µM)
Summary of the method: as §1

Cell Line	relative viability ([1]; first compound 0.08 µM)	relative viability ([1]; first compound 0.8 µM)	relative viability ([1]; first compound 2.53 µM)	relative viability ([1]; first compound 8 µM)	relative viability ([2]; first compound 0.08 µM)	relative viability ([2]; first compound 0.8 µM)	relative viability ([2]; first compound 2.53 µM)	relative viability ([2]; first compound 8 µM)	relative viability ([3]; first compound 0.08 µM)	relative viability ([3]; first compound 0.8 µM)	relative viability ([3]; first compound 2.53 µM)	relative viability ([3]; first compound 8 µM)	relative viability ([4]; first compound 0.1 µM)	relative viability ([4]; first compound 0.3162 µM)	relative viability ([4]; first compound 1 µM)	relative viability ([5]; first compound 0.1 µM)	relative viability ([5]; first compound 0.3162 µM)	relative viability ([5]; first compound 1 µM)
ChaGo-K-1	0.921	0.921	0.881	0.867	1.08	1.21	1.18	1.07	0.561	0.515	0.495	0.519	0.515	0.437	0.496	0.74	0.757	0.718
COR-L 105	0.404	0.409	0.418	0.442	0.782	0.827	0.787	0.677	0.755	0.739	0.675	0.558	0.29	0.319	0.287	0.825	0.904	0.676
NCI-H1975	0.34	0.38	0.306	0.275	1	1.12	0.926	0.796	0.417	0.455	0.376	0.4	0.329	0.362	0.285	0.744	0.702	0.603
NCI-H1993	0.507	0.576	0.522	0.519	0.971	0.828		0.936	0.652	0.665	0.514	0.63	0.591	0.545	0.62	0.819	0.872	0.864
RERF-LC-KJ	0.821	0.953	0.769	0.82	0.818	0.915	0.778	0.76	0.687	0.799	0.673	0.658	0.683	0.768	0.655	0.66	0.669	0.573
NCI-H23	0.398	0.371	0.404	0.395	0.431	0.508	0.506	0.362	0.324	0.334	0.308	0.283	0.805	0.415	0.911	0.56	0.36	0.453
HCC-366	0.344	0.401	0.295	0.412	0.618	0.581	0.334	0.509	0.328	0.375	0.352	0.449	0.601	0.595	0.428	0.302	0.343	0.249
EMC-BAC-2	0.805	0.988		0.856	0.779	0.771	0.75	0.803	0.977	0.961		0.943	0.289	0.362	0.285	0.418	0.566	0.317
NCI-H2405	0.68	0.586	0.596	0.563	0.827	0.885	0.753	0.78	0.739	0.766	0.746	0.729	0.191	0.244	0.159	0.946	0.982	0.814
NCI-H358	0.149	0.139	0.131	0.132	0.654	0.543	0.554	0.502	0.208	0.206	0.201	0.217	0.148	0.147	0.129	0.656	0.654	0.634
NCI-H1944	0.463	0.387	0.336	0.377	1.21	1.01	1.4	1.03	0.414	0.421	0.45	0.395	0.21	0.235	0.196	0.668	0.571	0.516
EPLC-272H	0.281	0.273		0.32	0.831	1.13	0.954	0.904	0.391	0.366		0.368	0.364	0.345	0.0536	0.547	0.375	0.335
NCI-H1915	0.312	0.288	0.251	0.279	0.896	1.14	1.03	0.905	0.248	0.272	0.575	0.251	0.258	0.307	0.179	0.539	0.507	0.459
NCI-H596	0.806	0.979	0.689	0.795	0.966	0.985	0.912	1.15	1.12	0.883	1.89	0.937	0.512	0.628	0.538	0.602	0.573	0.439
NCI-H322M	0.466	0.485	0.428	0.59	0.982	0.969	0.994	0.862	0.73	0.816	0.611	0.489	0.254	0.24	0.222	0.87	0.969	0.735
NCI-H647	0.474	0.469	0.406	0.479	1.28	1.47	1.05	0.957	0.402	0.272	0.361	0.383	0.21	0.203	0.142	0.61	0.782	0.385
SK-MES-1	0.585	0.491	0.522	0.503	1.01	1.04	0.871	1	0.361	0.399	0.309	0.422	0.285	0.427	0.272	1.08	1.09	0.976
NCI-H2170	0.994	1.01	0.924	0.857	1.23	1.33	1.22	1.36	0.521	0.464	0.47	0.467	0.566	0.416	0.339	0.886	0.776	0.654
